One compound from patent US20050101542A1, “Combination therapy for controlling appetites” (Regents of the University of California, priority 2002, published 2005) can be followed below.

For data set [1], the system named is Cardiomyocyte. The data set is described as follows: [14C]oleate oxidation to CO2 in cardiomyocytes. The format is cell-based, rat. Conditions: 30 min incubation. An excerpt:
(§1) This example illustrates the effect of OEA on fat metabolism and methods for studying the same. Oleoylethanolamide (OEA) decreases body weight not only by suppressing appetite, but also by possibly enhancing body fat catabolism. The effects of OEA on fatty acid oxidation in major body-fat burning tissues (soleus muscle, liver, cultured cardiac myocytes and astrocytes) was examined. […] In addition, OEA induces a significant mobilization of triacylglycerol stores from primary white adipose tissue cells. Table 4 details the methods and effects of OEA on fatty acid oxidation in these cells. Structure-activity relationship experiments provide evidence that the effect of OEA on skeletal muscle fatty acid oxidation is specific (FIG. 8).

The subject of data set [2] is Astrocyte. The data set is described as follows: [14C]oleate oxidation to ketone bodies in astrocytes. The format is cell-based, rat. Conditions: 30 min incubation.
From the text: as §1

In data set [3] the target is T1, human PPARα (Homo sapiens, UniProt Q07869).
T1 construct: expressed in transfected cells; host or cells: HeLa (clonal reporter line HLR, stably transfected with pFA-PPARα)
T1 sequence (Q07869 239-466 limits assumed): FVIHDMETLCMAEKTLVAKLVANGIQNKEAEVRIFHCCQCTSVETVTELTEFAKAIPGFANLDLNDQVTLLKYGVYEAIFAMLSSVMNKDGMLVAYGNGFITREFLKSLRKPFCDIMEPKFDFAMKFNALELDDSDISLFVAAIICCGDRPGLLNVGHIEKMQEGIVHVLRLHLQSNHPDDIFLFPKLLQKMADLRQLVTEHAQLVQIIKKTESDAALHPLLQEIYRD
The data set is described as follows: GAL4 chimeric receptor transactivation assay in HeLa cells, PPARα. Conditions: HeLa transactivation assay, 7 hours; read-out: EC50 for PPARα activation. Type of data set: cell-based. As to the method:
(§2) Eighteen hours following transfection, the culture media was replaced with supplemented DMEM containing hygromycin (100 μg-ml^−1, Calbiochem). After 4 weeks in culture, the surviving clones were isolated and analyzed by luciferase assay. […] The cells were cultured in supplemented DMEM containing hygromycin and G418. For transactivation assays, cells were seeded in 6-well plates (50,000 cells per well) and incubated for 7 hours in supplemented DMEM containing hygromycin and G418, plus appropriate concentrations of test compounds. Dual-luciferase reporter assay system (Promega) and an MLX Microtiter® plate luminometer (Dynex) were used to determine luciferase activity in cell lysates.

Data set [4] has as its target T2, human PPARδ (Homo sapiens, UniProt Q03181).
T2 construct: expressed in transfected cells; host or cells: HeLa (clonal reporter line HLR, stably transfected with pFA-PPARδ)
T2 sequence (Q03181 211-439 limits assumed): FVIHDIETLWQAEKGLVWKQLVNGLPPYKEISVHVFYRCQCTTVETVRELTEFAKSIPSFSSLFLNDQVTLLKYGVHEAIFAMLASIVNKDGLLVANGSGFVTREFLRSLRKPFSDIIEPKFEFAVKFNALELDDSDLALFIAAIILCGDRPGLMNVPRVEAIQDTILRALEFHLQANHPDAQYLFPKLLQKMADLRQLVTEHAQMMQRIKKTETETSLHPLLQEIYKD
Nature of the data set: GAL4 chimeric receptor transactivation assay in HeLa cells, PPARδ. The format is cell-based. The following applies: read-out: EC50 for PPARβ activation. As to the method: as §2

The subject of data set [5] is retinoid X receptor (RXR). Nature of the data set: GAL4 chimeric receptor transactivation assay in HeLa cells, RXR. Type of data set: cell-based, human. As to the method: Transactivator plasmids pFA-PPARα, pFA-PPARδ, pFA-PPARγ and pFA-RXR, which encoded for the […] Of hPPARα ? ((499-1404), hPPARδ (412-1320), hPPARγ (610-1434) and hRXR (402-1389) fused to the DNA-binding domain (residues 1-147) Of yeast GAL4 under control of the human cytomegalovirus (CMV) promoter were generated. The plasmids contained a neomycin-resistance gene to provide stable selection with G418 (200 μg-ml^−1; Calbiochem). The HeLa cells were cultured in Dulbecco's-modified Eagles's medium (DMEM) supplemented with fetal bovine serum (10%). The cells were transfected with Fugene 6 (3 μl, Roche) Containing the pFR-luc plasmid (1 μg, Stratagene). Eighteen hours following transfection, the culture media was replaced with supplemented DMEM containing hygromycin (100 μg-ml^−1, Calbiochem). After 4 weeks in culture, the surviving clones were isolated and analyzed by luciferase assay. […] The cells were cultured in supplemented DMEM containing hygromycin and G418. For transactivation assays, cells were seeded in 6-well plates (50,000 cells per well) and incubated for 7 hours in supplemented DMEM containing hygromycin and G418, plus appropriate concentrations of test compounds. Dual-luciferase reporter assay system (Promega) and an MLX Microtiter® plate luminometer (Dynex) were used to determine luciferase activity in cell lysates. […]

A short description of data set [6]: Liver OEA content after OEA injection in wild-type and PPAR-α null mice (HPLC/MS). The format is in vivo, mouse. The following applies: 1 h after OEA 5 mg kg^−1 i.p.
The nature of data set [7]: OEA for 2 weeks in obese Zucker rats: serum lipids, glucose, food intake, body weight. The format is in vivo, rat. The protocol:
Subchronic experiments. Male wild-type and PPARα null mice were fed with a very high-fat diet (60 kcal % fat; D12492; Research Diets, NJ). […] The mice were divided into 4 groups (n=7-8 each), and treated them for 4 additional weeks with vehicle (saline/polyethylene glycol/Tween 80, 90/5/5; 1 ml-kg^−1) Or OEA (5 mg-kg^−1, once daily, i.p.). In a separate experiment, obese Zucker rats were treated for 2 weeks with vehicle or OEA (5 mg-kg^−1, once daily, i.p.), while maintaining them on a regular rodent chow (RMH 2500, Prolab). Food intake and body weight were measured daily. At the end of the experiments, the animals were fasted overnight, and tissues and blood samples collected for biochemical analyses.
Chronic experiment: In a separate experiment, we treated obese Zucker rats for 2 weeks with vehicle (saline/polyethylene glycol/Tween-80, 90/5/5; 1 ml kg^−1, once daily, i.p.) or OEA (5 mg kg^−1, once daily, i.p.), while maintaining them on a regular rodent chow (RMH 2500, Prolab). We measured food intake and body weight daily. At the end of the experiments, the animals were fasted overnight, and tissues and blood samples collected for biochemical analyses.
Lipids were extracted from mouse liver and epidydimal adipose tissue (Bligh and Dyer, 1959) and measured triglycerides with a commercial kit (Sigma). Serum lipids and glucose were measured with an automated Synchron LX® system (Beckman-Coulter).

The mark [8] stands for this setting: OEA 5 mg kg−1 i.p. once a day for 2 weeks.

As a reminder, the EC50 is the concentration that produces a half-maximal response. Consider `CCCCCCCC/C=C\CCCCCCCC(=O)NCCO` [OEA, Z-2-hydroxyethyl octadec-9-enamide], for which, in data set [1], the “Stimulatory effect of 10 μM OEA on [14C]oleate oxidation to CO2” value is 37 ± 9 (n = 3) %. The “Stimulatory effect of 10 μM OEA on [14C]oleate oxidation to ketone bodies” value in data set [2] is listed as 2 ± 6 (n = 3) %. In addition, the EC50 in data set [3] stood at 120 nM. For the same compound, the EC50 in data set [4] was 1100 ± 100 nM. Moreover, in data set [5], the “effect on RXR” value is listed as “no effect”. Also, in data set [6] (PPAR-α-null mice), the “Liver OEA content” value turned out to be 251.2 ± 28.2 pmol/g. In addition, the “Liver OEA content” value in data set [6] (wild-type mice) came out at 150.5 ± 19.7 pmol/g. In data set [7] (setting [8]), this compound had a Serum cholesterol of 66.14 ± 7.06 mg/dL, a Serum glucose of 221.25 ± 23.80 mg/dL and a Serum triglycerides of 394.17 ± 49.40 mg/dL. Moreover, the “food intake and body-weight gain” value in data set [7] (OEA 5 mg-kg^−1 once daily for 2 weeks i.p.) is on record as “significant inhibition”.
